Test [1] addresses MTHFD2 (Homo sapiens (Human), UniProt P13995). The experiment in a line: Inhibition of MTHFD2 (NAD(P)H-Glo luminescence). Format: biochemical. Particulars: 3.4 nmol/L MTHFD2, 5 μmol/L folitixorin, 250 μmol/L NAD+; mean of at least 3 independent measurements. The protocol:
DMSO was used as negative control. The serial dilution in DMSO, from compound DMSO stock solution, was created by dispensing from a 384-well low dead volume microplate (LP-0200, Labcyte) and a 384-well polypropylene microplate 2.0 (PP-0200, Labcyte). A total of 2.5 μL MTHFD2 was preincubated with compound or DMSO for 10 min. The enzymatic reaction was initiated by adding 2.5 μL folitixorin (F680350, Toronto Research Chemicals). For background control, 5 μL buffer was added to the well. […] The final concentrations of all reagents in a total assay volume of 5 μL per well were 50 mmol/L Tris-HCl at pH 8.0, 100 mmol/L NaCl, 5 mmol/L MgCl2, 25 mmol/L Na3PO4 at pH 8.0, 0.005% (v/v) Tween-20, and 2 mmol/L 2-mercaptoethanol. After 15 min reaction time, 5 μL NAD(P)H-Glo detection reagent (G9061 or G9062, Promega) was dispensed in all wells and the plate was incubated for 60 min. Luminescence was measured on a plate reader (Envision, PerkinElmer or Sense, Hidex). The light signal produced is proportional to the amount of NAD(P)H in the sample. IC50 values were determined by fitting a four parameter sigmoidal curve model using XLfit (IDBS). Reported IC50 values are the mean of at least 3 independent measurements.

Test [2] concerns HL-60 cells. The experiment in a line: Cancer cell viability assay (HL-60, resazurin). Type of test: cell-based. Particulars: Homo sapiens, 96 h, mean of at least 3 independent measurements, read-out: HL60 cell proliferation inhibition EC50. The protocol:
HL-60 cells (human promyelocytic leukemia cells) were seeded in a 384-well plate at a density of 2,000 cells per well in 50 μL induction medium and treated with vehicle (DMSO) or an 11-point concentration range with 3-fold dilution in concentration of compound. Each assay point was run in duplicate. Wells without cells but with DMSO were used as negative controls. The cells were left to proliferate over a period of 96 h, in an incubator at 37° C. and 5% CO2, followed by an addition of 10 μL […] resazurin sodium salt (199303, Sigma-Aldrich) dissolved in DPBS (14190, Gibco). After 4 h of incubation at 37° C. and 5% CO2, the fluorescent signal was measured using an excitation wavelength of 544 nm and an emission wavelength of 595 nm in a Hidex Sense plate reader. Cell plates were incubated in boxes with damp paper tissues to avoid evaporation. All additions, except compound and DMSO, were done using the Multidrop Combi (Thermo Fisher Scientific). DMSO and compounds were pre-dispensed with an Echo 550 Liquid handler (Labcyte) in black, clear bottom, TC-treated and sterile 384-well plates (3764, Corning). Growth medium consisted of RPMI 1640 GlutaMAX (61870, Gibco), 10% (v/v) FBS (10500, Gibco), and 1% (v/v) P/S (15070, Gibco). Induction medium consisted of RPMI 1640 GlutaMAX (61870, Gibco), 5% (v/v) FBS (10500, Gibco), and 1% (v/v) P/S (15070, Gibco). EC50 values were determined by fitting a four parameter sigmoidal curve model using XLfit (IDBS). Reported EC50 values are the mean of at least 3 independent measurements.
(Alamar Blue is a resazurin reagent that responds to reducing activity.)

Structures are written as SMILES. pEC50, pIC50: −log10 of the molar value. Where a name gives a salt, the structure may show the parent alone.

Chain of MTHFD2 (P13995 36-350): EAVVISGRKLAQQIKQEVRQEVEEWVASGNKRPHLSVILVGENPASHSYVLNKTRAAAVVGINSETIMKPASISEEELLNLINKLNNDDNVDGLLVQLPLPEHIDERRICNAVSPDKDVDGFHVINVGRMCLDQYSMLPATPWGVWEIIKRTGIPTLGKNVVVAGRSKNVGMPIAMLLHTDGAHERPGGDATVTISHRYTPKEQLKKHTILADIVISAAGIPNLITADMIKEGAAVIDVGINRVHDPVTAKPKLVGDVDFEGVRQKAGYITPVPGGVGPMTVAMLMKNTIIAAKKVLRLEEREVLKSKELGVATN

In test [1], `Nc1nc(N)c(NC(=O)Nc2cnc(C(=O)N[C@@H](CCc3nnn[nH]3)C(=O)O)c(F)c2)c(=O)[nH]1` [Example 24, (2S)-2-[(5-{[(2,4-diamino-6-oxo-1,6-dihydropyrimidin-5-yl)carbamoyl]amino}-3-fluoropyridin-2-yl)formamido]-4-(1H-1,2,3,4-tetrazol-5-yl)butanoic acid] had a pIC50 of 8.52. Also, the pEC50 in test [2] was 8.70.
The corresponding values for `Nc1nc(N)c(NC(=O)Nc2cnc(C(=O)N[C@@H](CCC(=O)O)C(=O)O)c(Cl)c2)c(=O)[nH]1` [Example 5, (2S)-2-[(3-chloro-5-{[(2,4-diamino-6-oxo-1,6-dihydropyrimidin-5 yl)carbamoyl]amino}pyridin-2-yl)formamido]pentanedioic acid] are 7.82 and 7.03.
The molecule `Nc1nc(N)c(CC(=O)Nc2ccc(C(=O)N[C@@H](CCC(=O)O)C(=O)O)nc2)c(=O)[nH]1` [Example 7, (2S)-2-((5-[2-(2,4-diamino-6-oxo-1,6-dihydropyrimidin-5-yl)acetamido]pyridin-2-yl)formamido)pentanedioic acid hydrochloride] had a negative-log IC50 (pIC50) in test [1] of 6.81. Besides, the pEC50 in test [2] is 7.77.
The corresponding values for `CC(C)[C@H](NC(=O)c1ccc(NC(=O)Cc2c(N)nc(N)[nH]c2=O)cn1)C(=O)O` [Example 13, (2S)-2-({5-[2-(2,4-diamino-6-oxo-1,6-dihydropyrimidin-5-yl)acetamido]pyridin-2-yl}formamido)-3-methylbutanoic acid] are 6.99 and 6.67.
For the molecule `Nc1nc(N)c(CC(=O)Nc2ccc(C(=O)N[C@@H](CCC(=O)O)C(=O)O)nc2-c2ccccc2)c(=O)[nH]1` [Example 27, (2S)-2-((5-[2-(2,4-diamino-6-oxo-1,6-dihydropyrimidin-5-yl)acetamido]-6-phenylpyridin-2-yl)formamido)pentanedioic acid], in test [1], the negative-log IC50 (pIC50) is 7.19. The pEC50 in test [2] was 5.56.
On to `Nc1nc(N)c(NC(=O)Nc2ccc(C(=O)N[C@@H](CC3CCCC3)C(=O)O)nc2)c(=O)[nH]1` [Example 11, (2S)-3-cyclopentyl-2-[(5-{[(2,4-diamino-6-oxo-1,6-dihydropyrimidin-5-yl)carbamoyl]amino}pyridin-2-yl)formamido]propanoic acid], for which the pIC50 in test [1] is 7.34. The pEC50 in test [2] was 7.43.
For the molecule `Nc1nc(N)c(NC(=O)Nc2ccc(C(=O)N[C@@H](CCC(=O)N[C@@H](CCC(=O)O)C(=O)O)C(=O)O)nc2)c(=O)[nH]1` [Example 23, (2S)-2-[(4S)-4-carboxy-4-[(5-{[(2,4-diamino-6-oxo-1,6-dihydropyrimidin-5-yl)carbamoyl]amino}pyridin-2-yl)formamido]butanamido]pentanedioic acid], the pIC50 in test [1] is 7.37. Moreover, the pEC50 in test [2] was 6.08.
In the case of `Nc1nc(N)c(NC(=O)Nc2ccc(C(=O)N[C@@H](CCC(=O)O)C(=O)O)nc2)c(=O)[nH]1` [Example 1, (2S)-2-[(5-{[(2,4-diamino-6-oxo-1,6-dihydropyrimidin-5-yl)carbamoyl]amino}pyridin-2-yl)formamido]pentanedioic acid; trifluoroacetic acid], the pIC50 in test [1] was 7.62. In test [2], the pEC50 was 7.12.
The molecule `Nc1nc(N)c(CC(=O)Nc2cnc(C(=O)N[C@@H](CCc3nnn[nH]3)C(=O)O)c(F)c2)c(=O)[nH]1` [Example 32, (2S)-2-((5-[2-(2,4-diamino-6-oxo-1,6-dihydropyrimidin-5-yl)acetamido]-3-fluoropyridin-2-yl)formamido)-4-(1H-1,2,3,4-tetrazol-5-yl)butanoic acid] had a negative-log IC50 (pIC50) in test [1] of 7.89. The pEC50 in test [2] was 8.00.
The molecule `CC(C)[C@H](NC(=O)c1ccc(NC(=O)Nc2c(N)nc(N)[nH]c2=O)cn1)C(=O)O` [Example 3, (2S)-2-[(5-{[(2,4-diamino-6-oxo-1,6-dihydropyrimidin-5-yl)carbamoyl]amino}pyridin-2-yl)formamido]-3-methylbutanoic acid; trifluoroacetic acid] had a negative logarithm of the IC50 (pIC50) in test [1] of 7.72. Further, the pEC50 in test [2] was 7.51.

As usually defined, the pIC50 is −log10 of the IC50, conventionally taken in molar units. A low value points to a large IC50.

For the origin of these results see patent US11504368B2, “2,6-diamino-3,4-dihydropyrimidin-4-one derivatives and use thereof in therapy” (THOMAS HELLEDAYS STIFTELSE FÖR MEDICINSK FORSKNING, priority 2018, dated 2022).
